These results are taken from patent publication US12178804B2, “Salts of cycloserine compounds and applications thereof” (SyneuRx International (Taiwan) Corp., priority 2018, dated 2024).

Data set [1] can be described thus: Hygroscopicity test at room temperature/95% RH in an open system. The class given is physicochemical.
A short description of data set [2]: Stress study at 40° C./75% RH in closed system (appearance, HPLC).

The structures appear in SMILES notation.

Take `N[C@@H]1CONC1=O.O=C(O)/C=C\C(=O)O` [D-cycloserine maleate (1:1) salt form, D-cycloserine maleate]: the “hygroscopicity compared with D-cycloserine and the carboxylic acids alone” value in data set [1] was “much less hygroscopic”. Also, in data set [1] (FIG. 41), the “water absorbed at the 30th day” value was determined as 1.3%.
In the case of `N[C@@H]1CONC1=O` [D-cycloserine], the “water absorbed at the 30th day” value in data set [1] (FIG. 41) came to 41.3%; in data set [1] (FIG. 42) it was 43.3%. Further, the “water absorbed at the 60th day” value in data set [1] (FIG. 40) came to 62.5%. For the same compound, the “appearance after one month stress study” value in data set [2] (40° C./75% RH, one month) was “disintegrated and turned into dark yellow”.
On to `N[C@@H]1CONC1=O` [D-cycloserine from Strides Shasun Ltd., D-cycloserine], for which the entries for the “water absorbed at the 30th day” value in data set [1] (FIG. 41) and in data set [1] (FIG. 42) were 41.9% and 42.7%, respectively. For the same compound, in data set [1] (FIG. 40), the “water absorbed at the 60th day” value is on record as 59.2%.
For `N[C@@H]1CONC1=O.O=C(O)C(O)C(O)C(=O)O` [D-cycloserine L-tartrate], the “hygroscopicity compared with D-cycloserine and the carboxylic acids alone” value in data set [1] was “much less hygroscopic”. The “water absorbed at the 60th day” value in data set [1] (FIG. 40) is given as 18.9%. Moreover, the “hygroscopicity (in words)” value in data set [1] (30 days, FIG. 41) is “not hygroscopic”; in data set [1] (60 days, FIG. 40), “not hygroscopic”.
In the case of `O=C(O)[C@@H](O)[C@H](O)C(=O)O` [D-tartaric acid], the “water absorbed at the 30th day” value in data set [1] (FIG. 42) was determined as 177.0%. Moreover, in data set [2] (40/75% RH, 30 days, FIG. 39), the “stability by HPLC after stress study” value is recorded as “stable”.
In the case of `O=C(O)[C@H](O)[C@@H](O)C(=O)O` [L-tartaric acid], the “water absorbed at the 60th day” value in data set [1] (FIG. 40) stood at 244.6%.
With `N[C@@H]1CONC1=O.N[C@@H]1CONC1=O.O=C(O)C(O)C(O)C(=O)O` [D-cycloserine D-tartrate], the “hygroscopicity compared with D-cycloserine and the carboxylic acids alone” value in data set [1] is reported as “much less hygroscopic”. Moreover, the “water absorbed at the 30th day” value in data set [1] (FIG. 42) is listed as 1.3%. Besides, the “hygroscopicity (in words)” value in data set [1] (30 days, FIG. 42) is “not hygroscopic”.
Regarding `O=C(O)/C=C\C(=O)O` [Maleic acid, maleic acid], the “water absorbed at the 30th day” value in data set [1] (FIG. 41) turned out to be 100.4%.
